Measured values taken from publication PMC9967275, “Screening the Pathogen Box to Discover and Characterize New Cruzain and TbrCatL Inhibitors” (Pathogens, 2023).

What follows are compounds tested against T1, TbrCatL (Trypanosoma brucei rhodesiense, UniProt Q95PM0) (assay: TbrCatL enzymatic inhibition assay (cleavage of fluorogenic substrate Z-FR-AMC)). Settings: 0’ (no pre-incubation); sheet Screening results.
T1 construct: Conor Caffrey (University of California San Diego)
Assay type: biochemical
How it was run: (§1)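 Recombinant enzymes assayed by Z-Phe-Arg-AMC cleavage at 25 °C, fluorescence 340/440 nm over 5–7 min, with 10 min or no enzyme–compound preincubation.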
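Also: at 5 µM compound concentration.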

T1 sequence (Q95PM0 entry or part of it): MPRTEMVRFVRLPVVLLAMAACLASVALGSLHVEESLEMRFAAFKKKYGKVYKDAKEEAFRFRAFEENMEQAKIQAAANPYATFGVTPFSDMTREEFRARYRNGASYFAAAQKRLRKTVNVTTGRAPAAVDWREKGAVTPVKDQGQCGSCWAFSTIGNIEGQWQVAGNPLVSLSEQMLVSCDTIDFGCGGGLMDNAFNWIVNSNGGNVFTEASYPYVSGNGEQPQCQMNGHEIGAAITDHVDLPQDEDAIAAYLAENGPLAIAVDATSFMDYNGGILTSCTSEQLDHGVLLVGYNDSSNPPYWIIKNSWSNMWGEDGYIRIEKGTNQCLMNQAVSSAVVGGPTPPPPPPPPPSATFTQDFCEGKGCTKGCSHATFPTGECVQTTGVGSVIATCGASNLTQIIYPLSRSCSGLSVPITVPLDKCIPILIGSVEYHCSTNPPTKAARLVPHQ

| Structure (SMILES) | TbrCatL Inhibition 0’ [%] |
| --- | --- |
| CC[C@@H]([C@H](C)O)n1ncn(-c2ccc(N3CCN(c4ccc(OC[C@@H]5CO[C@@](Cn6cncn6)(c6ccc(F)cc6F)C5)cc4)CC3)cc2)c1=O [MMV688774] | 3.6 |
| Cc1cccnc1NC(=O)c1cccc(OCc2c(C)noc2C)c1 [MMV688793] | 14 |
| O=C(NCc1nnc2n1CCCCC2)c1ccc(-c2ccc(F)cc2)o1 [MMV688796] | 7 |
| CC1CCCCN1C(=O)NCCc1coc(-c2ccc(F)cc2)n1 (stereo not drawn) [MMV688797] | 16 |
| CS(=O)(=O)c1ccccc1C(=O)N(Cc1ccccc1)c1ccccc1 [MMV688798] | 1.5 |

Same assay, conditions: 0’ (pre-incubation time); Pathogen Box screening results

| Structure (SMILES) | TbrCatL Inhibition 0’ [%] |
| --- | --- |
| CC(C)(C)C(=O)N(CCCCCCN1C[C@H](O)[C@@H](O)[C@H](O)[C@H]1CO)C1CCCCCC1 [MMV688543] | -7 |
| CCc1ccccc1-n1c(C)cn2c3c(=O)n(C(C(=O)OC)C(C)C)c(=O)n(C)c3nc12 (stereo not drawn) [MMV688550] | -16 |
| Cc1nn(C(=O)Nc2cccc(C(F)(F)F)c2)c(C)c1Sc1ncccn1 [MMV688552] | -0.1 |
| NCC(c1cccs1)S(=O)(=O)c1ccccc1 (stereo not drawn) [MMV688557] | -0.6 |
| CO/N=C(/C(=O)OC)c1ccccc1CO/N=C(/C)c1cccc(C(F)(F)F)c1 [MMV688754] | -4 |
| O=[N+]([O-])c1cn2c(n1)OC[C@@H](OCc1ccc(OC(F)(F)F)cc1)C2 [MMV688755] | -0.5 |

Same assay, conditions: 0’ (pre-incubation time); sheet "Screening results"

| Structure (SMILES) | TbrCatL 0’ Inhibition [%] |
| --- | --- |
| Nc1ncnc2n[nH]c(Cc3cccc4ccccc34)c12 [MMV688469] | -8 |
| COc1cc(C2=NCCN2)ccc1-n1cc(-c2cccc(C3=NCCN3)c2)nn1 [MMV688474] | 10 |
| O=C(OCc1ccccc1)N1CCC(c2cc(-c3ccncc3)c(-c3ccc(F)cc3)[nH]2)CC1 [MMV688509] | -13 |
| CN1CCC(c2cc(-c3ccncc3)c(-c3ccc(F)cc3)[nH]2)CC1 [MMV688703] | 6 |
| COc1ccc(-c2onc(C(F)(F)F)c2-c2ccc(Cl)cc2)c(O)c1 [MMV688766] | 0 |
| Cc1ccccc1C(=O)N1NC(=Nc2ccccc2)SC1(C)C [MMV688771] | -5 |
| O=C(NCCc1ccn(-c2ccccc2)n1)C1CCCCC1 [MMV688795] | 5 |

Same assay, conditions: 10’ (pre-incubation time); Pathogen Box screening results

| Structure (SMILES) | TbrCatL Inhibition 10’ [%] |
| --- | --- |
| CC(C)(C)C(=O)N(CCCCCCN1C[C@H](O)[C@@H](O)[C@H](O)[C@H]1CO)C1CCCCCC1 [MMV688543] | 1.7 |
| CCc1ccccc1-n1c(C)cn2c3c(=O)n(C(C(=O)OC)C(C)C)c(=O)n(C)c3nc12 (stereo not drawn) [MMV688550] | 0.4 |
| Cc1nn(C(=O)Nc2cccc(C(F)(F)F)c2)c(C)c1Sc1ncccn1 [MMV688552] | 5 |
| NCC(c1cccs1)S(=O)(=O)c1ccccc1 (stereo not drawn) [MMV688557] | 1.2 |
| CO/N=C(/C(=O)OC)c1ccccc1CO/N=C(/C)c1cccc(C(F)(F)F)c1 [MMV688754] | -1.2 |
| O=[N+]([O-])c1cn2c(n1)OC[C@@H](OCc1ccc(OC(F)(F)F)cc1)C2 [MMV688755] | 4 |

Same assay, conditions: 10’ (pre-incubation time); sheet "Screening results"

| Structure (SMILES) | TbrCatL 10’ Inhibition [%] |
| --- | --- |
| Nc1ncnc2n[nH]c(Cc3cccc4ccccc34)c12 [MMV688469] | -1.7 |
| COc1cc(C2=NCCN2)ccc1-n1cc(-c2cccc(C3=NCCN3)c2)nn1 [MMV688474] | 30 |
| O=C(OCc1ccccc1)N1CCC(c2cc(-c3ccncc3)c(-c3ccc(F)cc3)[nH]2)CC1 [MMV688509] | -13 |
| CN1CCC(c2cc(-c3ccncc3)c(-c3ccc(F)cc3)[nH]2)CC1 [MMV688703] | 3.6 |
| COc1ccc(-c2onc(C(F)(F)F)c2-c2ccc(Cl)cc2)c(O)c1 [MMV688766] | -5 |
| Cc1ccccc1C(=O)N1NC(=Nc2ccccc2)SC1(C)C [MMV688771] | 0.3 |
| O=C(NCCc1ccn(-c2ccccc2)n1)C1CCCCC1 [MMV688795] | 5.4 |

Same assay, conditions: 10’ (pre-incubation); sheet Screening results

| Structure (SMILES) | TbrCatL Inhibition 10’ [%] |
| --- | --- |
| CC[C@@H]([C@H](C)O)n1ncn(-c2ccc(N3CCN(c4ccc(OC[C@@H]5CO[C@@](Cn6cncn6)(c6ccc(F)cc6F)C5)cc4)CC3)cc2)c1=O [MMV688774] | 8 |
| Cc1cccnc1NC(=O)c1cccc(OCc2c(C)noc2C)c1 [MMV688793] | 10 |
| O=C(NCc1nnc2n1CCCCC2)c1ccc(-c2ccc(F)cc2)o1 [MMV688796] | -2.4 |
| CC1CCCCN1C(=O)NCCc1coc(-c2ccc(F)cc2)n1 (stereo not drawn) [MMV688797] | 15 |
| CS(=O)(=O)c1ccccc1C(=O)N(Cc1ccccc1)c1ccccc1 [MMV688798] | -1.9 |

The compounds below were run against cruzain (Trypanosoma cruzi, UniProt P25779) (assay: biochemical). Settings: 0’ (no pre-incubation); sheet Screening results.
How it was run: as §1

Sequence of cruzain (P25779 123-337 limits assumed): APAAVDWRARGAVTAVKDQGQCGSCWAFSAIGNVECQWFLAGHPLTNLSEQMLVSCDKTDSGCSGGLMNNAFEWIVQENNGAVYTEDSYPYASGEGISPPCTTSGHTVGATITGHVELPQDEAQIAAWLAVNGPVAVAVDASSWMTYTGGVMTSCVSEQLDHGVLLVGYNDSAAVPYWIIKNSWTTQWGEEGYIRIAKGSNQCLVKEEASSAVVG

| Structure (SMILES) | Cruzain Inhibition 0’ [%] |
| --- | --- |
| CC[C@@H]([C@H](C)O)n1ncn(-c2ccc(N3CCN(c4ccc(OC[C@@H]5CO[C@@](Cn6cncn6)(c6ccc(F)cc6F)C5)cc4)CC3)cc2)c1=O [MMV688774] | 9 |
| Cc1cccnc1NC(=O)c1cccc(OCc2c(C)noc2C)c1 [MMV688793] | 16 |
| O=C(NCc1nnc2n1CCCCC2)c1ccc(-c2ccc(F)cc2)o1 [MMV688796] | 15 |
| CC1CCCCN1C(=O)NCCc1coc(-c2ccc(F)cc2)n1 (stereo not drawn) [MMV688797] | 15 |
| CS(=O)(=O)c1ccccc1C(=O)N(Cc1ccccc1)c1ccccc1 [MMV688798] | 13 |

Same assay, conditions: 0’ (pre-incubation time); Pathogen Box screening results

| Structure (SMILES) | Cruzain Inhibition 0’ [%] |
| --- | --- |
| CC(C)(C)C(=O)N(CCCCCCN1C[C@H](O)[C@@H](O)[C@H](O)[C@H]1CO)C1CCCCCC1 [MMV688543] | -1.2 |
| CCc1ccccc1-n1c(C)cn2c3c(=O)n(C(C(=O)OC)C(C)C)c(=O)n(C)c3nc12 (stereo not drawn) [MMV688550] | -4.3 |
| Cc1nn(C(=O)Nc2cccc(C(F)(F)F)c2)c(C)c1Sc1ncccn1 [MMV688552] | 2.3 |
| NCC(c1cccs1)S(=O)(=O)c1ccccc1 (stereo not drawn) [MMV688557] | 2.3 |
| CO/N=C(/C(=O)OC)c1ccccc1CO/N=C(/C)c1cccc(C(F)(F)F)c1 [MMV688754] | 0.9 |
| O=[N+]([O-])c1cn2c(n1)OC[C@@H](OCc1ccc(OC(F)(F)F)cc1)C2 [MMV688755] | 3 |

Same assay, conditions: 0’ (pre-incubation time); sheet "Screening results"

| Structure (SMILES) | Cruzain 0’ Inhibition [%] |
| --- | --- |
| Nc1ncnc2n[nH]c(Cc3cccc4ccccc34)c12 [MMV688469] | -9 |
| COc1cc(C2=NCCN2)ccc1-n1cc(-c2cccc(C3=NCCN3)c2)nn1 [MMV688474] | 2.4 |
| O=C(OCc1ccccc1)N1CCC(c2cc(-c3ccncc3)c(-c3ccc(F)cc3)[nH]2)CC1 [MMV688509] | -3.8 |
| CN1CCC(c2cc(-c3ccncc3)c(-c3ccc(F)cc3)[nH]2)CC1 [MMV688703] | 3.7 |
| COc1ccc(-c2onc(C(F)(F)F)c2-c2ccc(Cl)cc2)c(O)c1 [MMV688766] | 1 |
| Cc1ccccc1C(=O)N1NC(=Nc2ccccc2)SC1(C)C [MMV688771] | 29 |
| O=C(NCCc1ccn(-c2ccccc2)n1)C1CCCCC1 [MMV688795] | 3.2 |

Same assay, conditions: 10’ (pre-incubation time); Pathogen Box screening results

| Structure (SMILES) | Cruzain Inhibition 10’ [%] |
| --- | --- |
| CC(C)(C)C(=O)N(CCCCCCN1C[C@H](O)[C@@H](O)[C@H](O)[C@H]1CO)C1CCCCCC1 [MMV688543] | 7.5 |
| CCc1ccccc1-n1c(C)cn2c3c(=O)n(C(C(=O)OC)C(C)C)c(=O)n(C)c3nc12 (stereo not drawn) [MMV688550] | 3.2 |
| Cc1nn(C(=O)Nc2cccc(C(F)(F)F)c2)c(C)c1Sc1ncccn1 [MMV688552] | 0.1 |
| NCC(c1cccs1)S(=O)(=O)c1ccccc1 (stereo not drawn) [MMV688557] | 0.1 |
| CO/N=C(/C(=O)OC)c1ccccc1CO/N=C(/C)c1cccc(C(F)(F)F)c1 [MMV688754] | 3.5 |
| O=[N+]([O-])c1cn2c(n1)OC[C@@H](OCc1ccc(OC(F)(F)F)cc1)C2 [MMV688755] | 6.6 |

Same assay, conditions: 10’ (pre-incubation time); sheet "Screening results"

| Structure (SMILES) | Cruzain 10’ Inhibition [%] |
| --- | --- |
| Nc1ncnc2n[nH]c(Cc3cccc4ccccc34)c12 [MMV688469] | 4.5 |
| COc1cc(C2=NCCN2)ccc1-n1cc(-c2cccc(C3=NCCN3)c2)nn1 [MMV688474] | 13 |
| O=C(OCc1ccccc1)N1CCC(c2cc(-c3ccncc3)c(-c3ccc(F)cc3)[nH]2)CC1 [MMV688509] | 3.8 |
| CN1CCC(c2cc(-c3ccncc3)c(-c3ccc(F)cc3)[nH]2)CC1 [MMV688703] | 1.9 |
| COc1ccc(-c2onc(C(F)(F)F)c2-c2ccc(Cl)cc2)c(O)c1 [MMV688766] | -2.5 |
| Cc1ccccc1C(=O)N1NC(=Nc2ccccc2)SC1(C)C [MMV688771] | 8 |
| O=C(NCCc1ccn(-c2ccccc2)n1)C1CCCCC1 [MMV688795] | 4 |

Same assay, conditions: 10’ (pre-incubation); sheet Screening results

| Structure (SMILES) | Cruzain Inhibition 10’ [%] |
| --- | --- |
| CC[C@@H]([C@H](C)O)n1ncn(-c2ccc(N3CCN(c4ccc(OC[C@@H]5CO[C@@](Cn6cncn6)(c6ccc(F)cc6F)C5)cc4)CC3)cc2)c1=O [MMV688774] | 10 |
| Cc1cccnc1NC(=O)c1cccc(OCc2c(C)noc2C)c1 [MMV688793] | 10 |
| O=C(NCc1nnc2n1CCCCC2)c1ccc(-c2ccc(F)cc2)o1 [MMV688796] | 7 |
| CC1CCCCN1C(=O)NCCc1coc(-c2ccc(F)cc2)n1 (stereo not drawn) [MMV688797] | 10 |
| CS(=O)(=O)c1ccccc1C(=O)N(Cc1ccccc1)c1ccccc1 [MMV688798] | 1.2 |
